Reference: paper PMC8073686, “Characterization of Subtype Selective Cannabinoid CB2 Receptor Agonists as Potential Anti-Inflammatory Agents” (Pharmaceuticals, 2021)

How the values were obtained:
[1] = test system: TNF-α production in Jurkat cells; test: PHA/PMA-induced TNF-α production in Jurkat cells (ELISA of culture medium); type: cell-based, human; conditions: 10 μM, 24 h
Protocol: (§1) Activation of CB2 is known to have anti-inflammatory effects. There are some studies reporting that CB2 agonists decrease cytokine production in immune cells. We also reported that the cannabinoid receptor agonist CP55,940 and ABK5 inhibit cytokine production in the human T cell lines Jurkat and MOLT-4 [24]. Since ABK5-1 and 5-2 were confirmed to be CB2-subtype selective agonists, we were interested to determine whether these compounds also have anti-inflammatory effects. Note, although ABK5-6 had marginally better binding affinity to CB2, it bound to CB1 very, very weakly (i.e., micromolar range). Therefore ABK5-6 was not selected for further evaluations. […] To test if these mRNA changes are reflected in the protein levels of cytokines, the IL-2 and TNF-α concentration in the cell culture medium were measured by ELISA. […]
(§2) Figure 4 Effect of ABK5-1 and ABK5-2 on phytohemagglutinin (PHA)/phorbol 12-myristate 13-acetate (PMA)-induced cytokine production in T cells. […] IL-2 and TNF-α mRNA levels were determined by real-time PCR (RT-PCR) after ABK5-1 treatment and (A) 3 h and (B) 24 h of PHA/PMA (phytohemagglutinin/phorbol 12-myristate 13-acetate) stimulation. […] IL-2 and TNF-α mRNA were also examined after ABK5-2 treatment and (E) 3 h and (F) 24 h of stimulation, and protein levels of (G) IL-2 and (H) TNF-α were measured after 24 h stimulation. […]

CB2 = target: T1, CB2 (Homo sapiens, UniProt P34972); test: Competitive [3H]CP55,940 radioligand binding, CB2-transfected HEK293T cell membrane; conditions: competition with [3H]CP55,940; mean ± S.D.
T1 construct: expressed in transfected cells; host or cells: HEK293T cells, calcium phosphate transfection, membrane preparation
T1 sequence (P34972 whole entry): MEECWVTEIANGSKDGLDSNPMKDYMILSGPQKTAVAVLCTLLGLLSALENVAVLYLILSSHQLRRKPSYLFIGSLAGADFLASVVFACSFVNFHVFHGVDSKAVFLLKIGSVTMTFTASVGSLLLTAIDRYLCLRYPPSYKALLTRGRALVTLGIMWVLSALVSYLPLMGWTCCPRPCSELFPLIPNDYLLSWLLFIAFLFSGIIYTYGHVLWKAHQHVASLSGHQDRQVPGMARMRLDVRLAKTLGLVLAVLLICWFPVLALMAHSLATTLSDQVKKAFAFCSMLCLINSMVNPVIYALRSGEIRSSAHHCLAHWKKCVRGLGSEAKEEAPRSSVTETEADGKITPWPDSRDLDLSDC
Description: To evaluate binding affinity of ABK5 analogs that have a difference in the position of substituents in the N-phenyl ring (Figure 1), we performed competitive radiolabeled ligand binding assays using cell membrane from HEK293T cells transfected with human CB2 receptors. […] ABK5-1, ABK5-2, and ABK5-6 dose-dependently competed with [^3H]CP55,940 and decreased the specific binding of the radiolabeled agonist, which reflects the binding of test compounds to CB2. […] Therefore, ABK5-5 was not considered for further evaluation in this study. […] We also examined CB2 selectivity (versus CB1) of the three compounds by performing similar binding assays using membrane from CB1 expressing HEK293 cells instead of CB2 expressing cells. […] Therefore, ABK5-1 and 5-2 maintained the CB2 subtype selectivity of ABK5.
In the experiment, 1 × 10^6 HEK293T cells were seeded in a 10-cm cell culture dish and cultured for 24 h. Cells were transfected with CB1 or CB2 using the calcium phosphate method. Approximately one day after transfection, cells were harvested and centrifuged at 4 °C for 5 min at 500× g. The pellet was washed with phosphate buffered saline (PBS) twice and resuspended in PBS containing 1% protease-inhibitor cocktail (Sigma-Aldrich, St. Louis, MO, USA) consisting of 104 mM 4-(2-aminoethyl) benzene sulfonyl fluoride hydrochloride (AEBSF), 80 μM apronitin, 4 mM bestatin, 1.64 mM E-64, 2 mM leupeptin, 1.5 mM pepstatin A. Then the cells were subjected to nitrogen cavitation under 750 psi for 5 min using a Parr cell disruption bomb. The lysate was centrifuged at 500× g for 10 min at 4 °C and the supernatant was spun at 116,000× g for 45 min at 4 °C. The pellet, consisting of the cell membrane expressing CB1 or CB2, was resuspended in TME buffer solution (25 mM Tris-HCl, 5 mM MgCl2, and 1 mM EDTA, pH 7.4) with 7% (w/v) sucrose/TME buffer. The concentration of the membrane protein was determined by the Bradford assay (Bradford, 1976).
Membrane protein was mixed with 1 nM to 10 μM of the test compounds and 1 nM [^3H]CP55,940 (164.9 Ci/mmol; PerkinElmer life Sciences, Waltham, MA, USA), and TME buffer supplemented with 0.2% BSA was used to bring the total volume to 200 μL. [^3H]CP55,940 acts as tracer and agonists that bind the target receptor compete with [^3H]CP55,940. Samples were incubated for 1 h at 30 °C. Ten μM unlabeled CP55,940 was used to determine non-specific binding. […] A Beckman Coulter 6500 liquid scintillation counter was used to measure the radioactivity of the samples.
Results are presented as the mean ± standard deviation (S.D.). […] The Ki values in the ligand binding assay were calculated using the Prism software (GraphPad Software Inc., San Diego, CA, USA), using IC50 values obtained from non-linear regression fitted to the one-site binding model. […]

[2] = test system: IL-2 production in Jurkat cells; test: PHA/PMA-induced IL-2 production in Jurkat cells (ELISA of culture medium); type: cell-based, human; conditions: 10 μM, 24 h
Protocol: as §1, §2

Structure (SMILES)	decrease of TNF-α production (protein, ELISA) [1] [%]	Ki (CB2) [nM]	decrease of IL-2 production (protein, ELISA) [2]
CCOC(=O)c1ccccc1NC(=O)CN(c1ccc(C)cc1C)S(=O)(=O)c1ccccc1 [ABK5-1]	~37	28 ± 5	about 42%
CCOC(=O)c1ccccc1NC(=O)CN(c1c(C)cccc1C)S(=O)(=O)c1ccccc1 [ABK5-2]	~43	69 ± 19	about 42%
